Results from a melting point compilation (Tetko et al.; mined from patent text by program, amines drawn as free bases though some values may be those of a salt).

SMILES	melting point [°C]
CC(C)CN(CC(C)C)S(=O)(=O)N[C@@H](Cc1ccc(NC(=O)c2c(Cl)cncc2Cl)cc1)C(=O)O	209
Cc1nc[nH]c1CSCCNC(=N)NC#N	125 to 127
C=C1C(=O)C2CCC1(C)C2(C)C (stereo not drawn)	69 to 75
CCOCCOC(=O)Nc1c(C#N)cnn1-c1ccc(Cl)c(Cl)c1Cl	122 to 124
Cc1ccc(CCC(=O)CC(=O)CCc2ccc(C)cc2)cc1	45.6 to 46.8
O=P(O)(O)C(O)(Cc1ccc(Cl)cc1)P(=O)(O)O	219
Cc1cc([N+](=O)[O-])c(NCCO)c([N+](=O)[O-])c1	131
NC(C(=O)O)C1CC(C(=O)O)C1C(=O)O (stereo not drawn)	205 to 209
c1ccc(COc2cnc(N3CCNCC3)nc2)cc1	94 to 97
CCn1nc(OCC(=O)c2cccs2)c(-c2ccc(F)cc2)c1-c1ccc(S(C)(=O)=O)cc1	163 to 164
ClCc1coc(-c2cc3c(s2)CCCC3)n1	102 to 103
CN(C)c1ccc2c(n1)C(c1ccccc1Cl)=NCc1n[nH]c(=O)n1-2	244 to 246
COCN(c1noc(C)c1C)S(=O)(=O)C1(Br)C=CC=CC1 (stereo not drawn)	71 to 72
CC1(C)CC(N(c2nc(Cl)nc(N(C3CC(C)(C)N(O)C(C)(C)C3)C3CC(C)(C)N(O)C(C)(C)C3)n2)C2CC(C)(C)N(O)C(C)(C)C2)CC(C)(C)N1O	252 to 256
CC(C)(C)OC(=O)N1CCC(N2Cc3cc(Br)ccc3C2=O)CC1	179 to 180
CC(=O)NC[C@H]1CN(c2ccc(N3C[C@@H]4C[C@H]3CO4)c(F)c2)C(=O)O1	60 to 65
C=Cc1ccc(CSCCOC(=O)COCC(=O)O)cc1	63 to 68
COC(=S)N(C)C[C@@H]1CN(c2cc(F)c(N3CC(=O)N(C)C3)c(F)c2)C(=O)O1	130
Nc1ccc(N2CCOCC2)c(C(F)(F)F)c1	149 to 151
CC(C)=Cc1ccc(-c2c(C(C)C)ccc(CO)c2C(C)C)nc1	93 to 95
Cc1cccc(I)c1C(=O)NC(C)(C)CS(C)(=O)=O	134 to 136
O=C(c1cccs1)c1cnn2c(-c3cccc(-c4ccn(CC5CCC5)n4)c3)ccnc12	60
CCn1cc(C(=O)O)c(=O)c2cc(F)c(N3CC(CNC)C3)nc21	180 to 182
C=C(C)C(=O)OCCOCc1ccc(O)c2ncccc12	90 to 91

SMILES	melting point [°C]
CC(=O)CC(=O)OC(C)N=C(O)c1cc(C(=N)O)c(C(=O)O)cc1C(=O)O (stereo not drawn)	161 to 163
COc1ccc(C=NO)cc1-c1cc2c(cc1C)C(C)(C)CCC2(C)C	152
COc1cc(C#CC(=O)NCCCNC(=O)C#Cc2cc(OC)c(OC)c(OC)c2)cc(OC)c1OC	158 to 160
CCCOc1c(OC)cc(C=O)cc1SC	64 to 66
CCn1cc(C(=O)O)c(=O)c2cc(F)c(N3CCNCC3)c(C)c21	153 to 156
CC(C)OC(=O)c1cc(OC(C)C)ccc1[N+](=O)[O-]	45 to 50
O=C(Cc1ccccc1)N1CCN(Cc2n[nH]c3cc(F)ccc23)CC1	173 to 174
CCOC(=O)N1CCN(c2nc(C)nc3c2OCC(=O)N3)CC1	197 to 198
Cc1ccc(-c2nc(Cl)nc(Cl)n2)c(C)c1	136 to 137
Cc1nc(-c2c(F)cccc2F)n[nH]1	195 to 198
CC(CC(F)(F)C(F)(F)C(F)(F)C(F)(F)CC(C)C(=O)O)C(=O)O (stereo not drawn)	166 to 168
CC(C)C(C(=O)O)c1ccc(OC(F)(F)C(F)F)cc1 (stereo not drawn)	92 to 97
O=C(NCc1ccc(Cl)cc1)c1cnc2sc(C#CCCO)cc2c1O	242 to 246
CCOC(=O)C1(CC(C)=O)OC(=O)C(=O)C1C(C)=O (stereo not drawn)	87 to 88
COC(=O)c1cc(C(C)C)sc1NC(=O)Nc1ccc(C)cc1	49 to 51
N#Cc1ncn2c(C(F)(F)F)cc(-c3ccc(C(F)(F)F)cc3)nc12	236
CCCCn1cnc2c1c(=O)n(CCCCC(C)=O)c(=O)n2C	79 to 80
CC(C)(C)OC(=O)[C@@H](N)Cc1cc(I)c(O)c(I)c1	165 to 168
CC(C)NC(=O)N[C@@H](Cc1ccccc1)[C@H](O)[C@H](O)[C@H](Cc1ccccc1)NC(=O)NC(C)C	220 to 222
COC(=O)Cn1c(C)cc(O)c([N+](=O)[O-])c1=O	187
CC1CN(C)CC(C)(c2cccc(O)c2)O1 (stereo not drawn)	142 to 143
CC(C)(C)CCN1C(=O)C(NC(=O)Nc2ccccc2)C(=O)N(c2ccccc2F)c2ccccc21 (stereo not drawn)	271 to 272
CN(CCCCNC(=NCCSCc1csc(NC(=N)N)n1)NC#N)CCN(Cc1ccc(F)cc1)c1ccccn1	137

Further lines, results first:

melting point [°C]	SMILES
115 to 116	COc1c2c(cc3ccc(=O)oc13)CC(C)O2 (stereo not drawn)
73 to 74	COC(=O)c1sc2ccccc2c1N=CN(C)C
104	COCOc1ccc(C=CC(=O)c2c(O)cc(OC)cc2OC)cc1
137 to 140	O=c1oc(=O)n(Cc2cccs2)c2ccccc12
136 to 137	Cc1ccccc1C(CCC(=O)O)Oc1cc(OCc2cccc(CCC(=O)O)c2)ccc1C#N (racemic)
55 to 60	O=[N+]([O-])c1ccc(Oc2ccc(C(F)(F)F)cc2Cl)cc1CCl
205 to 206	Nc1cc2c(cc1Oc1ccccc1)C(=O)OC2
192 to 194	O=C(OCCc1ccc([N+](=O)[O-])cc1)C1Cc2c(ccc3[nH]ccc23)N1 (stereo not drawn)
182 to 183	CC(C)(C)c1cc(N(C(=O)CCC(=O)O)c2cccc(C(=O)O)c2)cc(C(C)(C)C)c1O
> 350	O=c1[nH]ncc2c1c(O)nc1cc(Cl)ccc12
128	O=C(Nc1ccccc1)O[C@@H]1CN=C(c2ccccc2F)O[C@H]1c1ccccc1 (racemic)
> 230	CN(C)C(c1ccccc1Cl)C1CCCCC1(O)c1ccc2ccccc2c1 (stereo not drawn)
146 to 147	Nc1ccc(C(O)C(COc2ccccc2)N2CCC(Cc3ccccc3)CC2)cc1 (stereo not drawn)
172 to 173	CC(C)c1ccc(OC(Cc2ccc(OCCNC(=O)c3ccc(-c4ccccc4)cc3)cc2)C(=O)O)cc1 (stereo not drawn)
200 to 201	COc1cc(NS(=O)(=O)c2ccc3c(c2)CCN3C=O)cc(OC)c1OC
179 to 180	O=C(O)COC1c2ccccc2COc2ccc(OCc3ccc4cc(Cl)ccc4n3)cc21 (stereo not drawn)
73.6 to 77.1	O=C(NCc1cccnc1)OCc1ccccc1
223 to 227	NC(=O)c1nc(-c2ccc(O)cc2)cs1
84 to 86	Nc1cccnc1Cc1ccccc1
221 to 224	CCCc1[nH]c2ccc(OC)cc2c1/C=C/C(=O)c1ccncc1
158 to 159	COC(=O)C1=C(C)NC(C)=C(C(=O)O)C1c1ccccc1 (single isomer, unassigned; (-))
92 to 94	O=C1CC(O)CC(/C=C/c2ccc(Cl)c(Cl)c2)O1 (stereo not drawn)
144 to 145	O=C(O)C(=O)c1ccc(OCCOc2ccc3c(c2)CCCC3)cc1
130 to 132	NC(=O)N(O)C[C@@H]1C[C@H]1c1cccc(Oc2ccncc2)c1 (relative stereo)
203 to 205	CN(CCc1ccccc1)C(=O)Cn1cc(C=Cc2nnn[nH]2)c2cc(OCc3ccccc3)ccc21
147 to 148	COC(=O)C(=O)c1ccc(OCCOc2cc3ccccc3c3ccccc23)cc1

melting point [°C]	SMILES
357	Cc1ccc2c(c1)C(=O)c1ccc(C(=O)O)cc1S2(=O)=O
198 to 201	Cc1nc(-n2cc(C(=O)NCc3ccc(F)cc3)nn2)sc1C(=O)NCc1ccccc1
153 to 155	Cc1cccc(C)c1NCCCC(=O)N(C(=O)c1ccc(Cl)cc1)[C@@H](Cc1ccccc1)C(=O)O
188 to 190	N#Cc1ccc(C(=O)Cc2ccc(C#N)cc2[N+](=O)[O-])cc1
194 to 195	CS(=O)(=O)NCc1cc(-c2ccccc2)c2c(n1)OCCN(Cc1cc(C(F)(F)F)cc(C(F)(F)F)c1)C2=O
184 to 185	CCNC(=O)Nc1nc2ccc(Cc3ccccn3)cc2s1
78	C=CC1(c2ccccc2)OC(C(=O)OC)Oc2ccc(Cl)cc21 (stereo not drawn)
140 to 145	CC(=O)Nc1ccc(-c2cccc(-c3nc(C(C)C)[nH]c3-c3cccc(C)n3)c2)cc1
118 to 119	COc1cc2c(c(Cl)c1Cl)C(=O)C(C(C)C)C2 (stereo not drawn)
82 to 83	COC(=O)c1ccccc1Oc1ccc(Br)cc1[N+](=O)[O-]
76 to 77	CCOC(=O)C(CCCc1ccccc1)(NC(C)=O)C(=O)OCC
153 to 156	Clc1c2ccccc2nc2c1cnn2-c1ccccn1
112 to 113	CCOCCCOc1ccc(-c2ccc3c(c2)C=C(C(=O)OC)CCN3C=O)cc1
195	CC(C)(C)C1=NC(=Cc2[nH]c(C(C)(C)C)c3ccccc23)c2ccccc21
172 to 174	COC(=O)c1ccc(COc2ccc3cc(-c4ccc(-c5ccccc5)n4Cc4ccc(C(F)(F)F)cc4)ccc3c2)c(C(=O)OC)c1
161 to 162	C[C@H](N)C(=O)N[C@@H](C)C(=O)NC(C)(Cc1ccccc1)c1ccccc1 (stereo partly drawn)
194 to 195	Nc1nc(N)c([N+](=O)[O-])c(OCc2ccccc2)n1
103 to 105	CC(Oc1cccc(C=Cc2ccc3ccc(Cl)cc3n2)c1)C(=O)O (single isomer, unassigned; (-))
125 to 127	CCOC(=O)c1c2ccc(Cl)cc2c(-c2ccccc2)n1CCOS(C)(=O)=O
64.5 to 66.5	CSc1ccc(C2=C(c3ccc(C)cc3)CCC2)cc1
158 to 159	Nc1ccc2c(c1)N(C(=O)CCCl)CC2
120 to 121	COc1ccccc1N1CCN(C(=O)c2ccccc2C(c2ccc(OC(C)C)cc2)c2ccc(OC(C)C)cc2)CC1
202 to 205	COc1ccc(O)c(C(=O)c2oc3ccc(Cl)cc3c2N)c1
243	O=C(Nc1ccccc1)Nn1ccc2ccccc21
94	COc1ccc(-c2nc(Sc3ccccn3)[nH]c2-c2ccc(OC)cc2)cc1
